Consider twelve compounds from patent US20250170248A1, “SMARCA DEGRADERS AND USES THEREOF” (Kymera Therapeutics, Inc., priority 2021, published 2025).

Holding throughout (type): cell-based
For test [1], the target named is T1, SMARCA2 (Homo sapiens, UniProt P51531). Description: MSD SMARCA2 degradation in A549 cell line. The following applies: for Dmax: A549, A549 cells; for Dmax / DC50: 24 h; for DC50 / SMARCA2 MSD A549 degradation 24 h: Average Dmax %: A549 cells; for DC50: read-out: SMARCA2 MSD A549 degradation 24 h: Average external-Abs DC50. The essentials:
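A549 cells treated 24 h with compound, 3-fold series from 1000 nM. Lysates captured on MSD plates and SMARCA2 quantified with anti-SMARCA2 and SULFO-TAG secondary antibodies (electrochemiluminescence). DC50 and Dmax (% degradation at 24 h) reported as letter bins.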

The next test concerns the target T2, SMARCA4 (Homo sapiens, UniProt P51532).
T2 construct: SMARCA2/SMARCA4 protein degradation selectivity in MV4-11 cells; endogenous in cells; host or cells: MV4-11
Description: SMARCA4 Western blot degradation in MV4-11 cells. To be noted: for Dmax: MV4-11, MV4-11 cells, read-out: SMARCA4 MSD MV411 degradation 24 h: average Dmax %; for Dmax / DC50: 24 h; for DC50 / SMARCA4 MSD MV411 degradation 24 h: average Dmax %: MV4-11 cells; for DC50: read-out: SMARCA4 MSD MV411 degradation 24 h: Mean external-Abs DC50. The essentials:
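MV4-11 cells (4×10^6/well) treated with compound for 24 h, lysed in RIPA with protease/phosphatase inhibitors, and SMARCA2, SMARCA4 and beta-actin detected by Western blot with LI-COR readout. Values reported as letter-coded DC50, 24 h Dmax % and SMARCA2/4 selectivity fold.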
Background: In western blotting, separated proteins are transferred to a membrane and probed.

In test [2] the target is T1, SMARCA2. Description: SMARCA2 Western blot degradation in MV4-11 cells. Further details: SMARCA2/SMARCA4 protein degradation selectivity in MV4-11 cells; endogenous in cells; host or cells: MV4-11. The following applies: for Dmax: MV4-11, MV4-11 cells, read-out: SMARCA2 MSD MV411 degradation 24 h: average Dmax %; for Dmax / DC50 / SMARCA2 MSD MV411 degradation 24 h: average Dmax %: 24 h; for DC50 / Selectivity in MV411 / SMARCA2 MSD MV411 degradation 24 h: average Dmax %: MV4-11 cells; for DC50: read-out: SMARCA2 MSD MV411 degradation 24 h: Mean external-Abs DC50; for Selectivity in MV411: SMARCA2/4 selectivity.

T2 sequence (P51532 whole entry): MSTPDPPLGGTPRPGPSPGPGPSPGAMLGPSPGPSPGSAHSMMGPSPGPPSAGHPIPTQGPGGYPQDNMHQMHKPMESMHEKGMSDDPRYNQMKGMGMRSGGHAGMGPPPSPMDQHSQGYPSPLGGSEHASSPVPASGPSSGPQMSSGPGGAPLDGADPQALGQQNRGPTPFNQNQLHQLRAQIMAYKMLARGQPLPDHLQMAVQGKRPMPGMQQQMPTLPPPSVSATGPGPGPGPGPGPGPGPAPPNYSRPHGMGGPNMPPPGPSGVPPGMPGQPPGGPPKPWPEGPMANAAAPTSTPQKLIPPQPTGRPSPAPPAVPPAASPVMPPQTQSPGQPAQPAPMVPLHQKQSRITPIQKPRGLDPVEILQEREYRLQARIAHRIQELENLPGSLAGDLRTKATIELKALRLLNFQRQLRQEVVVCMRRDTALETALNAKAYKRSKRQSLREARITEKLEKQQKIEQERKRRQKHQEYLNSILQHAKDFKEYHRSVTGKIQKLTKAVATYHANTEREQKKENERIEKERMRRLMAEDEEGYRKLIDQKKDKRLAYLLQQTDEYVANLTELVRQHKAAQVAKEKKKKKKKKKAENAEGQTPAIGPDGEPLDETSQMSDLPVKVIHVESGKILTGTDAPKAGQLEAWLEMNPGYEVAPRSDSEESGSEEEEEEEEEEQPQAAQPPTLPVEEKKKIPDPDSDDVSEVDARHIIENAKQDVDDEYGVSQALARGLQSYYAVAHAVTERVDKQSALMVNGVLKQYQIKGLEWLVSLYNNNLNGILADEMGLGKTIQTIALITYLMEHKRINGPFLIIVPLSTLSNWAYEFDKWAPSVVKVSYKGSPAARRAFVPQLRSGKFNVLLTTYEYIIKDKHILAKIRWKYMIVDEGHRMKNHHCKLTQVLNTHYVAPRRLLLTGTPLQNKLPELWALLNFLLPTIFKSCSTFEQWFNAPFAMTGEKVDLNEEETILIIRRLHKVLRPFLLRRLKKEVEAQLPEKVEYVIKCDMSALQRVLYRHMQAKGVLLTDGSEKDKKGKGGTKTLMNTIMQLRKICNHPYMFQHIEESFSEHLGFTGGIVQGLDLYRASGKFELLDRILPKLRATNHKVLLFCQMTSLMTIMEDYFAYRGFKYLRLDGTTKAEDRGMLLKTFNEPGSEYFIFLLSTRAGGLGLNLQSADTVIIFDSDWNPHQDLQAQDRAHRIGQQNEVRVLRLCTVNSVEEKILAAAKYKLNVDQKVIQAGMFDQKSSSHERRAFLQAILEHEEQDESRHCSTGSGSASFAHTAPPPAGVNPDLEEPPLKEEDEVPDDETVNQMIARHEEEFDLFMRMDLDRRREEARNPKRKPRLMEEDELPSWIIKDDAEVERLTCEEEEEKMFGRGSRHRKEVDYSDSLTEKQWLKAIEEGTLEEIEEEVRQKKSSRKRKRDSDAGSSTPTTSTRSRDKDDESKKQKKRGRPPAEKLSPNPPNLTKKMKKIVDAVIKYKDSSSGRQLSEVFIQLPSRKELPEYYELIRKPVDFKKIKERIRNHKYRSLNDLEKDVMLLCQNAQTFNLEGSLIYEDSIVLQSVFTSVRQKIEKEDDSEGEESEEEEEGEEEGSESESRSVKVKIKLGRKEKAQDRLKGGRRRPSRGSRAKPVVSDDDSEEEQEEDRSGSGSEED
T1 sequence (P51531 whole entry): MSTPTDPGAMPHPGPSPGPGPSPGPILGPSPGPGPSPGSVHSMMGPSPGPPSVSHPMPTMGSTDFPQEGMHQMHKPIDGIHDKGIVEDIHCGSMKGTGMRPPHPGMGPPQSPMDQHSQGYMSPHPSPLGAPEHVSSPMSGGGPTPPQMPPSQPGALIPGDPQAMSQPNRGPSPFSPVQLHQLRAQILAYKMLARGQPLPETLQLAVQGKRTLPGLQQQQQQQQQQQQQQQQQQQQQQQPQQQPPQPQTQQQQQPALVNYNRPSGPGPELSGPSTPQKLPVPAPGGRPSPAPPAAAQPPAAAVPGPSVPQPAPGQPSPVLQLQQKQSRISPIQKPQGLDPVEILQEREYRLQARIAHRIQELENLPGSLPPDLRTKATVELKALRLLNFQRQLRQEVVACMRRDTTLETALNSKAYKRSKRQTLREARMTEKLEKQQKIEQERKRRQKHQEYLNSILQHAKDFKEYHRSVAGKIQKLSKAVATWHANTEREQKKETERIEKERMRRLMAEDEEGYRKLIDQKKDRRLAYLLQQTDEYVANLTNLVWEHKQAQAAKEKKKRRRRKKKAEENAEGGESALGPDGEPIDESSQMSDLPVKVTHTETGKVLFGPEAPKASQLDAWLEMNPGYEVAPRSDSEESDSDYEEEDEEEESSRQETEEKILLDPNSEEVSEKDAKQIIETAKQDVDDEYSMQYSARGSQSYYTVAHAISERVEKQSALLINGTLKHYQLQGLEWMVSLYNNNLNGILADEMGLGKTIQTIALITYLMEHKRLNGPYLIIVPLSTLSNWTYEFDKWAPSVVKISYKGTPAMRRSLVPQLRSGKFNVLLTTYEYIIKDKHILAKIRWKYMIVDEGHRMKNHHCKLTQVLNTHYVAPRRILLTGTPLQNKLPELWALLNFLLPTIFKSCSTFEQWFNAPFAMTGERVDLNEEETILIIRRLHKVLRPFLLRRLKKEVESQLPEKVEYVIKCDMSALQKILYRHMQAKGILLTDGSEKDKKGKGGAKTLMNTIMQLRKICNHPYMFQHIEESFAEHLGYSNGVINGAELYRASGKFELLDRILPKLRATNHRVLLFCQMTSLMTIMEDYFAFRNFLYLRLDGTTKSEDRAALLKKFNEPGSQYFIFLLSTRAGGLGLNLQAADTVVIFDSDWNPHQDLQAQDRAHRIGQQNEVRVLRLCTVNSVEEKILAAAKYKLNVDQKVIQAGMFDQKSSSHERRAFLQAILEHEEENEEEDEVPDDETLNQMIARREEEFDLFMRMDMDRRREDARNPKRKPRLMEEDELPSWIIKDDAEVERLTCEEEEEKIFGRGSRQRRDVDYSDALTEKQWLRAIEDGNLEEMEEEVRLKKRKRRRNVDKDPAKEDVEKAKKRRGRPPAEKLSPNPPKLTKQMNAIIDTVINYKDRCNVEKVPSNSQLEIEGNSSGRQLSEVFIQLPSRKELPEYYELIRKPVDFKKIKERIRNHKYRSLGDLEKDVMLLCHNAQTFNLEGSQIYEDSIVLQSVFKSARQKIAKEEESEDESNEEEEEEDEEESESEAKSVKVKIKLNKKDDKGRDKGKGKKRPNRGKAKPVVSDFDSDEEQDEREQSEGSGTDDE

As for `C#Cc1ccc(CNC(=O)[C@@H]2C[C@@H](O)CN2C(=O)[C@@H](NC(=O)C2CCC3(CC2)CC(N2CCC(N4CCC(C(=O)N5CCN6c7cc(-c8ccccc8O)nnc7NC[C@H]6C5)CC4)CC2)C3)C(C)(C)C)cc1` (stereo partly drawn) [I-89], the results for the Dmax at SMARCA2 [1], at SMARCA4 and at SMARCA2 [2] were more than 90%, less than 50% and 70 to 90%, respectively. Further, the DC50 – broadly, the concentration giving 50% degradation – was more than 100 nM on SMARCA2 [1], more than 100 nM on SMARCA4 and 1 to 10 nM on SMARCA2 [2]. Also, on SMARCA2 [2], the “Selectivity in MV411” value is listed as “A (A (>500 fold))”.

As to `C#Cc1ccc(CNC(=O)[C@@H]2C[C@@H](O)CN2C(=O)[C@H](NC(=O)N2CC3(CC(N4CCC(c5cnc(N6CCc7[nH]c8nnc(-c9ccccc9O)cc8c7[C@H]6C)nc5)CC4)C3)C2)C(C)(C)CCN2CCNCC2)cc1` [I-339], at SMARCA2 [1], the Dmax – broadly, the greatest extent of degradation seen – is less than 50% and the DC50 was more than 100 nM. On SMARCA4, the Dmax is less than 50% and the DC50 is more than 100 nM. In addition, at SMARCA2 [2], the Dmax was less than 50%, the 50% degradation concentration (DC50) was more than 100 nM and the “Selectivity in MV411” value is reported as “C (C (10-100 fold))”.

Turning to `C#Cc1ccc(CNC(=O)[C@@H]2C[C@@H](O)CN2C(=O)[C@@H](N(CCN(C)C)C(=O)N2CC3(CC(N4CCC(c5cnc(N6CCc7[nH]c8nnc(-c9ccccc9O)cc8c7[C@H]6C)nc5)CC4)C3)C2)C(C)(C)C)cc1` [I-141], on SMARCA2 [1], the Dmax is less than 50% and the DC50 was more than 100 nM. On SMARCA4, the Dmax is less than 50% and the DC50 was more than 100 nM. Also, at SMARCA2 [2], the Dmax was less than 50%, the DC50 was more than 100 nM and the “Selectivity in MV411” value is listed as “C (C (10-100 fold))”.

As for `Cc1ncsc1-c1ccc(CNC(=O)[C@@H]2C[C@@H](O)CN2C(=O)[C@@H](NC(=O)[C@H]2CC3(CC[C@H](N4CCN(c5cnc(N6CCc7[nH]c8nnc(-c9ccccc9O)cc8c7[C@H]6C)nc5)CC4)CC3)C2)C(C)(C)C)cc1` (single isomer, unassigned) [I-79], at SMARCA2 [1], the “SMARCA2 MSD A549 degradation 24 h: Average Dmax %” value was “A (A (>90% degradation))” and the DC50 is more than 100 nM. Moreover, on SMARCA4, the “SMARCA4 MSD MV411 degradation 24 h: average Dmax %” value is “D (D (<50% degradation))” and the DC50 is more than 100 nM. Besides, at SMARCA2 [2], the “SMARCA2 MSD MV411 degradation 24 h: average Dmax %” value is given as “B (B (>70-90% degradation))”, the DC50 is 10 to 100 nM and the “Selectivity in MV411” value is “C (C (10-100 fold))”.

For the compound `C#Cc1ccc(CNC(=O)[C@@H]2C[C@@H](O)CN2C(=O)[C@@H](NC(=O)[C@H]2CC3(C2)C[C@H](N2CCC(N4CCC(N5CCN6c7cc(-c8ccccc8O)nnc7NC[C@H]6C5)CC4)CC2)C3)C(C)(C)C)c(Cl)c1` (single isomer, unassigned) [I-230], on SMARCA2 [1], the “SMARCA2 MSD A549 degradation 24 h: Average Dmax %” value is given as “A (A (>90% degradation))” and the DC50 lay in the range of 10 to 50 nM. Further, on SMARCA4, the “SMARCA4 MSD MV411 degradation 24 h: average Dmax %” value is “C (C (50-70% degradation))” and the DC50 is more than 100 nM. On SMARCA2 [2], the “SMARCA2 MSD MV411 degradation 24 h: average Dmax %” value is reported as “B (B (>70-90% degradation))”, the DC50 lay within 1 to 10 nM and the “Selectivity in MV411” value is recorded as “B (B (>100-500 fold))”.

Turning to `Cc1ncsc1-c1ccc(CNC(=O)[C@@H]2C[C@@H](O)CN2C(=O)[C@@H](NC(=O)C2(F)CC2)C(C)(C)C)c(O[C@H]2CC[C@@H](N3CCC(c4cnc(N5CCc6[nH]c7nnc(-c8ccccc8O)cc7c6[C@H]5C)nc4)CC3)CC2)c1` (single isomer, unassigned) [I-31], at SMARCA2 [1], the Dmax was more than 90% and the DC50 lay within 50 to 100 nM. Further, at SMARCA4, the Dmax is 50 to 70% and the DC50 was more than 100 nM. On SMARCA2 [2], the Dmax lay within 70 to 90%, the DC50 fell in the range of 10 to 100 nM and the “Selectivity in MV411” value is “B (B (>100-500 fold))”.

In the case of `Cc1ncsc1-c1ccc(CNC(=O)[C@@H]2C[C@@H](O)CN2C(=O)[C@@H](NC(=O)C2(F)CC2)C(C)(C)C)c(OCCN2CCC(c3cnc(N4CCN5c6cc(-c7ccccc7O)nnc6NC[C@H]5C4)nc3)CC2)c1` (single isomer, unassigned) [I-32], on SMARCA2 [1], the Dmax is more than 90% and the DC50 was less than 10 nM. At SMARCA4, the Dmax was more than 90% and the DC50 lay in the range of 1 to 10 nM. Moreover, at SMARCA2 [2], the Dmax was more than 90%, the DC50 is less than 1 nM and the “Selectivity in MV411” value is “C (C (10-100 fold))”.

For the compound `C#Cc1ccc(CNC(=O)[C@@H]2C[C@@H](O)CN2C(=O)[C@@H](NC(=O)[C@H]2CC3(C2)C[C@H](N2CCN(C(=O)CCN4CCN5c6cc(-c7ccccc7O)nnc6NC[C@H]5C4)CC2)C3)C(C)(C)C)cc1` (stereo partly drawn) [I-274], at SMARCA2 [1], the Dmax is more than 90% and the DC50 was more than 100 nM. For the same compound, at SMARCA4, the Dmax is more than 90% and the DC50 lay in the range of 10 to 100 nM. At SMARCA2 [2], the Dmax is more than 90%, the DC50 lay within 1 to 10 nM and the “Selectivity in MV411” value is recorded as “C (C (10-100 fold))”.

With `CC#Cc1ccc(CNC(=O)[C@@H]2C[C@@H](O)CN2C(=O)[C@@H](NC(=O)[C@H]2CCC3(CC2)C[C@H](N2CCC(c4cnc(N5CCN6c7cc(-c8ccccc8O)nnc7NC[C@H]6C5)nc4)CC2)C3)C(C)(C)C)cc1` (single isomer, unassigned) [I-103], at SMARCA2 [1], the Dmax is more than 90% and the DC50 is 50 to 100 nM. Also, on SMARCA4, the Dmax was 70 to 90% and the DC50 was more than 100 nM. Further, on SMARCA2 [2], the Dmax fell in the range of 50 to 70%, the DC50 was 1 to 10 nM and the “Selectivity in MV411” value is “C (C (10-100 fold))”.

In the case of `Cc1ncsc1-c1ccc(CNC(=O)[C@@H]2C[C@@H](O)CN2C(=O)C(c2cc(OC[C@H]3CC[C@@H](N4CCC(c5cnc(N6CCc7[nH]c8nnc(-c9ccccc9O)cc8c7[C@H]6C)nc5)CC4)CC3)no2)C(C)C)cc1` (single isomer, unassigned) [I-2], at SMARCA2 [1], the Dmax is 70 to 90% and the DC50 was 10 to 50 nM. For the same compound, at SMARCA4, the Dmax is more than 90% and the DC50 fell in the range of 10 to 100 nM. Also, at SMARCA2 [2], the Dmax was more than 90%, the DC50 was in the range of 1 to 10 nM and the “Selectivity in MV411” value is listed as “D (D (<10 fold))”.

In the case of `CC#Cc1ccc(CNC(=O)[C@@H]2C[C@@H](O)CN2C(=O)[C@@H](NC(=O)N2CC3(CC(N4CCC(c5cnc(N6CCc7[nH]c8nnc(-c9ccccc9O)cc8c7[C@H]6C)nc5)CC4)C3)C2)C(C)(C)C)cc1` [I-121], on SMARCA2 [1], the Dmax was more than 90% and the DC50 was 50 to 100 nM. At SMARCA4, the Dmax was less than 50% and the DC50 is more than 100 nM. In addition, on SMARCA2 [2], the Dmax fell in the range of 50 to 70%, the DC50 fell in the range of 10 to 100 nM and the “Selectivity in MV411” value is recorded as “B (B (>100-500 fold))”.

Consider `Cc1ncsc1-c1ccc(CNC(=O)[C@@H]2C[C@@H](O)CN2C(=O)[C@@H](NC(=O)[C@H]2CCC3(CC2)C[C@H](N2CCC4(CC2)CN(C(=O)N2CCN5c6cc(-c7ccccc7O)nnc6NC[C@H]5C2)CCO4)C3)C(C)(C)C)cc1` (single isomer, unassigned) [I-93], for which, at SMARCA2 [1], the “SMARCA2 MSD A549 degradation 24 h: Average Dmax %” value is given as “A (A (>90% degradation))” and the DC50 is more than 100 nM. At SMARCA4, the “SMARCA4 MSD MV411 degradation 24 h: average Dmax %” value is “C (C (50-70% degradation))” and the half-maximal degradation concentration (DC50) was more than 100 nM. For the same compound, at SMARCA2 [2], the “SMARCA2 MSD MV411 degradation 24 h: average Dmax %” value is “B (B (>70-90% degradation))”, the DC50 was 10 to 100 nM and the “Selectivity in MV411” value is reported as “C (C (10-100 fold))”.
